According to patent US11401255B2, “Small molecule activators of Parkin enzyme function” (Mayo Foundation for Medical Education and Research, priority 2016, dated 2022):

Experiments:
Parkin = Parkin (Homo sapiens (Human), UniProt O60260); experiment: Parkin substrates and pS65-Ub western blot in HeLa cells stably expressing untagged Parkin; type: cell-based; settings: 5 μM, 2 h, then 3.5 μM CCCP
Description: (§1) HeLa cells stably expressing untagged Parkin were left untreated or pre-treated with 5 μM of Compounds 1, 2, 3, 4, and 31 for 2 h and treated without (−) or with (+) low dose CCCP (3.5 μM CCCP). As a positive control (PC), some cells were treated with 10 μM CCCP. Lysates were loaded onto 8-16% Tris-Glycine gels, blotted onto membranes and probed with antibodies against Parkin substrates.
as §1, with “The” for “As a”, “(PC) was” for “(PC), some cells were”, “CCCP for 2 h.” for “CCCP.”, “pS65-Ub.” for “Parkin substrates.”
Cells were harvested in RIPA buffer or NP-40 lysis buffer containing protease and phosphatase inhibitors (Complete and PhosStop, Roche Applied Science) with the exception of Parkin Ub charging experiments where preheated (95° C.) SDS lysis buffer (50 mM Tris pH 7.6, 150 mM NaCl, 1% SDS) was used. Concentration of cell lysates was determined with bicinchoninic acid (Pierce Biotechnology). For Parkin Ub charging experiments, aliquots of lysates were treated with […] for 1 h at 37° C. pH was neutralized with equinormal HCl.
Protein was subjected to SDS-PAGE using 4-20% or 8-16% Tris-Glycine gels (Invitrogen) and transferred onto polyvinylidene fluoride (PVDF) (Millipore). Membranes were incubated with primary antibodies overnight at 4° C. followed by HRP-conjugated secondary antibodies (1:10,000; Jackson ImmunoResearch Laboratories). Primary antibodies used: beta III tubulin (rabbit, 1:1000, CST, #5568, CST), FLAG (mouse, 1:250,000, Sigma, F3165), GAPDH (mouse, 1:100,000-500,000, Meridian Life science, H86504M), GST (1:10,000, Sigma, G7781), MFN1 (mouse, 1:5,000, Abcam, ab57602), MFN2 (mouse, 1:5,000, Abcam, ab56889), Parkin (mouse, 1:2,000, Cell Signaling, #4211), pSer65-Ub (rabbit, 1:15,000, in-house (Fiesel et al., EMBO Reports (2015) 16:1114-30; Fiesel et al., (2015) Autophagy 11:2125-2126)), TOM70 (rabbit, 1:5,000, Proteintech, 14528-1-AP), UBE2L3 (rabbit, 1:10,000, ProteinTech, 14415-1-AP), VDAC1 (mouse, 1:5,000, Abcam, ab14734), vinculin (mouse, 1:100,000, Sigma, V9131).
As readout for its activation, a catalytic site mutant that can be used to trap Ub-charged Parkin was employed. […] To further validate effects on enhanced activation, we used HeLa cells expressing untagged native Parkin. PC treatment with 10 μM CCCP induced pSer65-Ub signals and the complete degradation of some substrates (e.g., Mitofusins) while the most abundant, VDAC1, was still ubiquitylated (FIG. 8). Similar effects were seen when cells had been pre-incubated with 5 μM of compound before a low dose CCCP, which had no effect on its own.

TA 1537 = experiment: Ames Test, strain TA 1537
Description: The test used amino acid-dependent strains of Salmonella typhimurium and Escherichia coli to detect point mutations which involved substitution, addition or deletion of one or a few DNA base pairs. Point mutations were introduced in the histidine (Salmonella typhimurium) or the tryptophan (Escherichia coli) operon, making the tester strains incapable of producing these amino acids. The test detected mutations that revert the mutations present in the bacteria, restoring the functional capability to synthesize histidine or tryptophan. The revertant bacteria were detected by the ability to grow in the absence of the amino acid required by the parent test strain. A mutagenic potential of a tested compound was assessed by exposing these bacterial strains to different concentrations of the compounds and estimating number of revertant colonies grown in the absence (trace quantities) of the amino acid.
DMSO was used as the negative control.
For each experiment, tester strain cultures were grown overnight in Oxoid nutrient broth #2 at 37° C. with shaking at 235 rpm to a density of 1-2×10^9 colony forming units/mL (OD540˜2).
The tester strain (10 μL of night culture) was mixed with the test agent (10 µL of the DMSO stock) and GM liquid medium (30 μL). The obtained mixture was incubated at room temperature for 5 min in a sterile 1.5 mL tube. Then, to the tube was added 200 μL of molten top agar stored at 44° C. to prevent solidifying. After mixing with a pipette, the mixture was poured onto the surface of a GM agar plate (2.0 mL of GM agar per plate). After solidifying the top agar, the plate was inverted and incubated at 37° C. for 48 hours. Then, results were expressed as number of revertant colonies per plate.

CYP 1A2 = CYP 1A2 (Homo sapiens (Human), UniProt P05177); experiment: in vitro
Description: (§2) CYP450 inhibition profiling provides valuable information regarding any possible drug-drug interactions for a test compound.
(§3) All experiments were performed using P450-Glo™ Assay Systems (Promega) in accordance with the manufacturer's protocols. The P450-Glo™ Assays provide a luminescent readout-based method for measuring cytochrome P450 activity. A conventional cytochrome P450 reaction was performed by incubating the cytochrome P450 and a luminogenic cytochrome P450 substrate. The substrates in the P450-Glo™ assays are derivatives of beetle luciferin. The derivatives themselves are not substrates for luciferase but are converted by cytochrome P450s to luciferin, which in turn reacts with luciferase to produce light. The amount of light produced was directly proportional to cytochrome P450 activity. All test points were performed in quadruplicates. Control membranes (without CYPs) represented the Negative control (baseline).
(§4) The following reference compounds were used to assess CYP inhibition: […]

CYP 2C19 = CYP 2C19 (Homo sapiens (Human), UniProt P33261); experiment: in vitro
Description: as §2, §3, §4

CYP 3A4 = CYP 3A4 (Homo sapiens (Human), UniProt P08684); experiment: in vitro; settings: % Mean
Description: as §2, §3, §4

[1] = TA 1537, 50 μM (row printed 100; conc. column shifted)
[2] = TA 1537, 100 μM (row printed 200; conc. column shifted)
[3] = TA 1537, 200 μM (row printed 300; conc. column shifted)

Chain of CYP 2C19 (P33261 whole entry): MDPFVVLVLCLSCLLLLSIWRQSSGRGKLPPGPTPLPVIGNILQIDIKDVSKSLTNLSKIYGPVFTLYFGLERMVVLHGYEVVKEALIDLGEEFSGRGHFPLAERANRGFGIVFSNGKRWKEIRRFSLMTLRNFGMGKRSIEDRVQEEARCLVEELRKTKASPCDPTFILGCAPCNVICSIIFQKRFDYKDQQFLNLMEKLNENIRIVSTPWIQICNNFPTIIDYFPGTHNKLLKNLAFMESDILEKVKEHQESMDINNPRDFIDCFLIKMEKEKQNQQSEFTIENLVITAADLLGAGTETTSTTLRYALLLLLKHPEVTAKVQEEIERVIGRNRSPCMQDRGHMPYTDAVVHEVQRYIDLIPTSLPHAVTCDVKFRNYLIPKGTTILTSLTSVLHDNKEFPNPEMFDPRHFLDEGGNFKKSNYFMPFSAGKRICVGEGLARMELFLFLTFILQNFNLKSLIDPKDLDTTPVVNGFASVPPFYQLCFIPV
Chain of CYP 1A2 (P05177 whole entry): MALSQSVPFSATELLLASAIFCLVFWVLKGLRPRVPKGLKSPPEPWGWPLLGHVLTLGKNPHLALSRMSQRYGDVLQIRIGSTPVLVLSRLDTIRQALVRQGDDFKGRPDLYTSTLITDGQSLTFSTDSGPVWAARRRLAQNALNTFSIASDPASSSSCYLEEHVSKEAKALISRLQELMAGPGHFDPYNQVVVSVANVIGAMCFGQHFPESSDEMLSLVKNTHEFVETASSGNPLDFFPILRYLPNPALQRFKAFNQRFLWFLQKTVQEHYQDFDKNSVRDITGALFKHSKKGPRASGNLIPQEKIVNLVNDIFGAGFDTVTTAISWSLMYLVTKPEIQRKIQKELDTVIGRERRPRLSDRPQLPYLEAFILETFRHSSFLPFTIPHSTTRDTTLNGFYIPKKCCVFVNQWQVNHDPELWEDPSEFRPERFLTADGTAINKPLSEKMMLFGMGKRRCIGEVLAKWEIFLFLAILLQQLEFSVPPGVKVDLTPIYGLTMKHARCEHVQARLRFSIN
Chain of Parkin (O60260 whole entry): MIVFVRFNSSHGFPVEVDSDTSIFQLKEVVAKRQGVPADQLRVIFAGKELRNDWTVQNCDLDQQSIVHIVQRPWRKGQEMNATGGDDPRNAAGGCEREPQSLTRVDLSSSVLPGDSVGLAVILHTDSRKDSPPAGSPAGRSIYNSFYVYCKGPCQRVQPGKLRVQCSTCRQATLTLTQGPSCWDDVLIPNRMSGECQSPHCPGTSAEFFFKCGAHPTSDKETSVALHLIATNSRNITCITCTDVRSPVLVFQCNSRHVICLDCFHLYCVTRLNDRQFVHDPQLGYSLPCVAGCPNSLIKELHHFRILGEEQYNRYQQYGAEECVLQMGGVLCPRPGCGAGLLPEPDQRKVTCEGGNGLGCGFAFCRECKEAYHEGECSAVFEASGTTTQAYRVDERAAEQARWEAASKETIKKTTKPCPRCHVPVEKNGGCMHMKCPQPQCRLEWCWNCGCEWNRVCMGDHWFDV
Chain of CYP 3A4 (P08684 whole entry): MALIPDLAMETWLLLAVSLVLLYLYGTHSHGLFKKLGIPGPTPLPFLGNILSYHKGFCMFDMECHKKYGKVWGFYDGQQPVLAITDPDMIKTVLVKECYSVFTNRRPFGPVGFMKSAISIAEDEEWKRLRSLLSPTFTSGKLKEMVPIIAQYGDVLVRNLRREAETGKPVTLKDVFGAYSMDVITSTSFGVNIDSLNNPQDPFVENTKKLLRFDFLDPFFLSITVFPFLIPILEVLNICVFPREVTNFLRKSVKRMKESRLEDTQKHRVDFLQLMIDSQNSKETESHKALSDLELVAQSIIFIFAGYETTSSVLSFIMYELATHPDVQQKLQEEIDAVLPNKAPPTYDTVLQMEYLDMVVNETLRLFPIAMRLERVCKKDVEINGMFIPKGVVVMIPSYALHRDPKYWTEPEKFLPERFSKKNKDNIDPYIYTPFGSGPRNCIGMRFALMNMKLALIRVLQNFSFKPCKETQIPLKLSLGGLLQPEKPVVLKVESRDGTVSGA

O=C(Cn1cnc2c1CCCC2)Nc1ccc(-c2ccccc2)cc1 [Compound 1]
Parkin substrate levels (ubiquitination and degradation) (Parkin): reduced substrate levels
pS65-Ub signal (western blot) (Parkin): robust induction of pS65-Ub
Fold increase (over baseline) (TA 1537; [1]): 0.23
Mean ± SD (TA 1537; [1]): 0.5 ± 0.7 revertant colonies per plate
Fold increase (over baseline) (TA 1537; [2]): 0.45
Mean ± SD (TA 1537; [2]): 1 ± 1.41 revertant colonies per plate
Fold increase (over baseline) (TA 1537; [3]): 0.45
inhibition at 10 µM (CYP 1A2; % (individual replicates)): 73.2%
inhibition at 10 µM (CYP 1A2; % Mean): 69%
inhibition at 10 µM (CYP 2C19; % Mean): 9.4%
inhibition at 10 µM (CYP 3A4): -24.4%

CC(C)c1nccn1CC(=O)Nc1ccc(-c2ccccc2)cc1 [Compound 2]
Parkin substrate levels (ubiquitination and degradation) (Parkin): reduced substrate levels
pS65-Ub signal (western blot) (Parkin): robust induction of pS65-Ub
Fold increase (over baseline) (TA 1537; [1]): 0.68
Mean ± SD (TA 1537; [1]): 1.5 ± 2.12 revertant colonies per plate
Fold increase (over baseline) (TA 1537; [2]): 0.45
Mean ± SD (TA 1537; [2]): 1 ± 0 revertant colonies per plate
Fold increase (over baseline) (TA 1537; [3]): 0.23
inhibition at 10 µM (CYP 1A2; % (individual replicates)): 49.3%
inhibition at 10 µM (CYP 1A2; % Mean): 40.4%
inhibition at 10 µM (CYP 2C19; % Mean): -9.5%
inhibition at 10 µM (CYP 3A4): -14.3%

CC(C)(C)Sc1ccc(NC(=O)Cn2ccnc2)cc1 [Compound 3]
Parkin substrate levels (ubiquitination and degradation) (Parkin): reduced substrate levels
pS65-Ub signal (western blot) (Parkin): robust induction of pS65-Ub
Fold increase (over baseline) (TA 1537; [1]): 0.45
Mean ± SD (TA 1537; [1]): 1 ± 1.41 revertant colonies per plate
Fold increase (over baseline) (TA 1537; [2]): 0.23
Mean ± SD (TA 1537; [2]): 0.5 ± 0.7 revertant colonies per plate
Fold increase (over baseline) (TA 1537; [3]): 5.68
inhibition at 10 µM (CYP 1A2; % (individual replicates)): 98.6%
inhibition at 10 µM (CYP 1A2; % Mean): 97.6%
inhibition at 10 µM (CYP 2C19; % (individual replicates)): 97.4%
inhibition at 10 µM (CYP 2C19; % Mean): 92.5%
inhibition at 10 µM (CYP 3A4): 88.3%

O=C(Cn1ccnc1-c1ccccn1)Nc1ccc(-c2ccccc2)cc1 [Compound 4]
Parkin substrate levels (ubiquitination and degradation) (Parkin): reduced substrate levels
pS65-Ub signal (western blot) (Parkin): robust induction of pS65-Ub
Fold increase (over baseline) (TA 1537; [1]): 0.23
Mean ± SD (TA 1537; [1]): 0.5 ± 0.7 revertant colonies per plate
Fold increase (over baseline) (TA 1537; [2]): 0
Mean ± SD (TA 1537; [2]): 0 ± 0 revertant colonies per plate
Fold increase (over baseline) (TA 1537; [3]): 0.23
inhibition at 10 µM (CYP 1A2; % Mean): 5.6%
inhibition at 10 µM (CYP 2C19; % Mean): -10.3%
inhibition at 10 µM (CYP 3A4): 1.4%

Cc1nc2c(c(N3CCCN(Cc4ccccc4)CC3)n1)CCCC2 [Compound 31]
Parkin substrate levels (ubiquitination and degradation) (Parkin): reduced substrate levels
pS65-Ub signal (western blot) (Parkin): robust induction of pS65-Ub
Fold increase (over baseline) (TA 1537; [1]): 0.45
Mean ± SD (TA 1537; [1]): 1 ± 1.41 revertant colonies per plate
Fold increase (over baseline) (TA 1537; [2]): 0
Mean ± SD (TA 1537; [2]): 0 ± 0 revertant colonies per plate
Fold increase (over baseline) (TA 1537; [3]): 0.23
inhibition at 10 µM (CYP 1A2; % Mean): -0.7%
inhibition at 10 µM (CYP 2C19; % (individual replicates)): 14%
inhibition at 10 µM (CYP 2C19; % Mean): 16.2%
inhibition at 10 µM (CYP 3A4): -16.1%
